According to patent US20240150286A1, “PEROXISOME PROLIFERATOR-ACTIVATED RECEPTOR GAMMA (PPARy) LIGANDS AND METHODS OF USE AS TREATMENTS FOR INSULIN RESISTANCE, OBESITY, FATTY LIVER DISEASE, AND TYPE 2 DIABETES” (The Board of Regents of the University of Oklahoma, priority 2022, published 2024):

How the values were obtained:
[1] = system: diet-induced obesity (DIO) mice; assay: TZD-associated side effects in DIO mice (PCV, heart weight, cardiac and bone genes); format: in vivo, mouse
Experimental: C57BL/6J male mice were obtained from Jackson laboratory (Bar Harbor, ME) and maintained on a 12 h light (6:00 AM to 6:00 PM)—12 h dark (6:00 PM to 6:00 AM) cycle at an ambient temperature of 22±1° C. All animals had access to diet and water ad libitum. All procedures involving animals were approved by the Institutional Animal Care and Use Committee of the University of Oklahoma Health Science Center. All experiments were performed with age-matched male mice. The mice were fed a high-fat diet (HFD) (60% kcal fat, Bio-Serv, NJ, USA) starting from the age of 6 weeks until study end. […] Food intake was determined manually by measuring the amount of input food subtracting the amount of the food remaining in the food hopper and the crumbs on the bedding of the cage each day for three days during the 4th week of the treatment. Packed cell volume (PCV) was measured with blood drawn from tail on a LW Scientific E8 centrifuge (LW Scientific, Lawrenceville, Georgia, USA) microhematocrit centrifuge at the end of study. For all other measurements, the blood was drawn at the time of euthanization.
(§1) Total RNA (2 μg) was isolated from tissues or cells using TRIzol reagents (Life Technologies) and reverse transcribed using oligo d(T) primers (New England Biosystems) and SuperScript IV reverse transcription kit (Applied Biosystems). qPCR was performed in a CFX96 Touch Real-Time PCR detection system using SYBR Green mix (Applied Biosystems). The amplification program was as follows: initial denaturation at 95° C. for 15 min, followed by 40 cycles of 95° C. for 15 s, 60° C. for 1 min, and 40° C. for 30 s. Relative mRNA expression was determined by the ΔΔCt method normalized to TBP mRNA.

[2] = target: T1, human PPARγ2 (Homo sapiens, UniProt P37231); assay: PPARγ transactivation reporter assay (3×PPRE-luc) in HEK-293 cells; format: cell-based; conditions: HEK293, PPARγ2 + 3×PPRE-luc, relative to Rosi
T1 construct: host or cells: HEK-293
T1 sequence (P37231 1-505): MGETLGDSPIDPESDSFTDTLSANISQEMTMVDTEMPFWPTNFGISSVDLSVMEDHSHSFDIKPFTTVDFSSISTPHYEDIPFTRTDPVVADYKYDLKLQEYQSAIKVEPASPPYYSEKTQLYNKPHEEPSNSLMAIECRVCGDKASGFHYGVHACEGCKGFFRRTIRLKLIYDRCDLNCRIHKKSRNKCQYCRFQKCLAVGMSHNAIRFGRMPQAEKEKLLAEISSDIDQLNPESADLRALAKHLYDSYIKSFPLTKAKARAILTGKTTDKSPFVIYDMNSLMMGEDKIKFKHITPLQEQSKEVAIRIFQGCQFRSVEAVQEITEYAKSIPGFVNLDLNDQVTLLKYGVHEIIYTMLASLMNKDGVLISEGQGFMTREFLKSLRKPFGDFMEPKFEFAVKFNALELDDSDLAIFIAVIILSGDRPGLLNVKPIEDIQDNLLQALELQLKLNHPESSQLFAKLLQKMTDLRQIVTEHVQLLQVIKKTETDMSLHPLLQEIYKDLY
Experimental: HEK-293 cells were seeded overnight, co-transfected with plasmids expressing human PPARγ2 and 3×PPRE-luc (both from Addgene) followed by incubation for 16 h, and then re-seeded in a 384-well plate and incubated for 24 h. Compounds were added and then incubated another 24 h. Luciferase activity was analyzed in each well using Bright-Glo Luciferase kit (Promega).

[3] = system: PPARγ S273 phosphorylation; assay: PPARγ S273 phosphorylation and phosphorylation-dependent genes in 3T3-L1 differentiated adipocytes; format: cell-based, mouse; conditions: 3T3-L1 differentiated adipocytes, TNFα 10 ng/ml 1 h, compounds at 10 μM, Western blot
Experimental: as §1

[4] = target: T2, PPARγ (Homo sapiens, UniProt P37231); conditions: cited from earlier work
T2 sequence (P37231 1-505): T1 sequence (P37231 1-505)

Row | SMILES | mRNA levels of bone formation genes (Bglap, SPP1, ColA1) ([1]; 4-week treatment) | heart weight ([1]; relative to vehicle) | mRNA levels of Myh7 and Nppb in heart ([1]; vs vehicle) | 3×PPRE-luc reporter activity as % of potency of Rosi [2] | S273 phosphorylation of PPARγ [3] | PPARγ binding affinity (literature) [4] | PPARγ phosphorylation at S273 (literature) [4]
1 | CN(CCOc1ccc(CC2SC(=O)NC2=O)cc1)c1ccccn1 (stereo not shown) [Rosi, rosiglitazone, reference compound] | decreased their expression significantly | significant increase | increased | – | – | – | –
2 | Cc1c(C)n(Cc2ccc(-c3ccccc3C(=O)O)cc2)c2ccc(C(=O)NCc3cccnc3)cc12 [UHC1, 4′ -((2,3-Dimethyl-5-(pyridine-3-ylmethylcarboamyl)-1H-indol-1-yl)methyl)biphenyl-2-carboxylic acid, reference compound] | – | – | – | approximately 45% | significantly inhibited | poor | inhibit
